Assays:
[1] = system: Del19/T790M/C797S EGFR; assay: EGFR degradation HTRF assay in H1975-clone #28 (DTC) cells; type: cell-based; conditions: H1975 # 28 DTC (Del19/T790M/C797S), 16h treatment; for DC50: HTRF; for Dmax (%): maximum percentage of degradation
How it was run: (§1)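 DC50 from a four-parameter fit of HTRF signal. H1975 mutant-EGFR clones with endogenous EGFR knocked out; 16 h treatment, 10 uM top, 5-fold × 8.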

[2] = biological target: T1, L858R/T790M/C797S EGFR (Homo sapiens, UniProt P00533, C797S/L858R/T790M); assay: EGFR degradation HTRF assay in H1975-clone #25 (LTC) cells; type: cell-based; conditions: 16h treatment; for DC50: H1975 # 25-LTC (L858R/T790M/C797S), HTRF; for Dmax: NCI-H1975, H1975 # 25-LTC (L858R/T790M/C797S), maximum percentage of degradation
T1 construct: expressed in transfected cells; host or cells: H1975 clone #25 (lentiviral over-expression, endogenous EGFR knocked out by sgRNA)
T1 sequence (P00533 25-1210 T790M/C797S/L858R): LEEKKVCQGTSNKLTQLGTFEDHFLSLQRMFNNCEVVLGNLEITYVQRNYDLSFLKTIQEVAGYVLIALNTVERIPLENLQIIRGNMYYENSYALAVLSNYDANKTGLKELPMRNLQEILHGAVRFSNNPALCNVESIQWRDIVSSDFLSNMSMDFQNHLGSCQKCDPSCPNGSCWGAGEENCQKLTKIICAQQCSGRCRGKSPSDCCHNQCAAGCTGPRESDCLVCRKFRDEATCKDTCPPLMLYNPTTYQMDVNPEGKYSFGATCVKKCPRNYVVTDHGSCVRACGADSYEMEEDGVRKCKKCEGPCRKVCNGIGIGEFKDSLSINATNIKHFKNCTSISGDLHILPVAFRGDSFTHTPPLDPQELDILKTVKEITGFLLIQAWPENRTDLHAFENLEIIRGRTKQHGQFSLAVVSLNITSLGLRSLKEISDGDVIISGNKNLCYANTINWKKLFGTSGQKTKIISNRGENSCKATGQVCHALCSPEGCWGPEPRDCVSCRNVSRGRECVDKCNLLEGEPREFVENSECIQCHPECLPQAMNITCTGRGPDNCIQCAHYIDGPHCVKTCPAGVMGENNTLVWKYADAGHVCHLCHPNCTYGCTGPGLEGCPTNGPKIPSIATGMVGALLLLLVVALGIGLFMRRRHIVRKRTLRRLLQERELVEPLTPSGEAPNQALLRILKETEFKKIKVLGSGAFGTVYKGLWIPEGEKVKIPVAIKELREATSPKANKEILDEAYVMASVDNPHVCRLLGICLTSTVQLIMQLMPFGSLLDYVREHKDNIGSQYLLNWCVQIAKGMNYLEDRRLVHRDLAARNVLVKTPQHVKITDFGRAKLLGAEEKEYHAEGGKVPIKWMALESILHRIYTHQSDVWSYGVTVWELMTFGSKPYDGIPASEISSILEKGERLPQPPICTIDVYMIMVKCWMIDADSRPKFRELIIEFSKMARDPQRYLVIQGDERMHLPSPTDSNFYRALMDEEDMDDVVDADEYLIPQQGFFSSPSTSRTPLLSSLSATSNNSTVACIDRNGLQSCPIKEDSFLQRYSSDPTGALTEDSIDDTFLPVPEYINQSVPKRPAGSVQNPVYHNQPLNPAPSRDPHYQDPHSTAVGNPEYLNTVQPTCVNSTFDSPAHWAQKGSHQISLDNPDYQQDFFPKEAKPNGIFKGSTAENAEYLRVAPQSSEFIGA
How it was run: as §1

Row | SMILES | DC50 [1] [nM] | Dmax (%) [1] [%] | DC50 [2] [nM] | Dmax [2] [%]
1 | Cc1cc2cc(n1)-c1cnn(C)c1OCCC[C@@H](C)CN1/C(=N/C2=O)Nc2ccc(C(=O)N(C)[C@@H](C)C3CCN(CCc4cc(F)c(C5CCC(=O)NC5=O)c(F)c4)CC3)cc21 (stereo partly drawn) [Example 272, (R,E)-N—((S)-1-(1-(4-((R)-2,6-dioxopiperidin-3-yl)-3,5-difluorophenethyl)piperidin-4-yl)ethyl)-N,1,2^6,7-tetramethyl-3-oxo-5^2,5^3-dihydro-1^1H,5^1H-11-oxa-4-aza-5(2,1)-benzo[d]imidazola-2(2,4)-pyridina-1(4,5)-pyrazolacycloundecaphane-5^6-carboxamide] | 1.52 | 76.03 | 1.36 | 87.2
2 | Cc1cc2cc(n1)-c1cnn(C)c1OCCC[C@@H](C)CN1/C(=N/C2=O)Nc2ccc(C(=O)N(C)C3CN(C4CCN(c5cc(F)c([C@H]6CCC(=O)NC6=O)c(F)c5)CC4)C3)cc21 [Example 309, (R,E)-N-(1-(1-(4-((R)-2,6-dioxopiperidin-3-yl)-3,5-difluorophenyl)piperidin-4-yl)azetidin-3-yl)-N,1′,2^6,7-tetramethyl-3-oxo-5^2,5^3-dihydro-1^1H,5^1H-11-oxa-4-aza-5(2,1)-benzo[d]imidazola-2(2,4)-pyridina-1(4,5)-pyrazolacycloundecaphane-5^6-carboxamide] | 0.684 | 65.2 | 0.459 | 83
3 | Cc1cc2cc(n1)-c1cnn(C)c1OCCC[C@@H](C)CN1/C(=N/C2=O)Nc2ccc(C(=O)N(C)C[C@@H]3CCN(CCc4cc(F)c([C@H]5CCC(=O)NC5=O)c(F)c4)CC3(F)F)cc21 [Example 273, (R,E)-N—(((S)-1-(4-((R)-2,6-dioxopiperidin-3-yl)-3,5-difluorophenethyl)-3,3-difluoropiperidin-4-yl)methyl)-N,1′,2,7-tetramethyl-3-oxo-5^2,5^3-dihydro-1^1H,5^1H-11-oxa-4-aza-5(2,1)-benzo[d]imidazola-2(2,4)-pyridina-1(4,5)-pyrazolacycloundecaphane-5^6-carboxamide] | 0.489 | 66.66 | 4.58 | 88.8
4 | COC[C@@H]1CN(Cc2ccc3c(c2)N2C[C@H](C)CCCOc4c(cnn4C)-c4cc(cc(C)n4)C(=O)/N=C/2N3)CCN1C(=O)[C@@H]1CCN(c2cc(F)c([C@H]3CCC(=O)NC3=O)c(F)c2)C1 [Example 202, (R)-3-(2,6-difluoro-4-((R)-3-((S)-2-(methoxymethyl)-4-(((R,E)-1^1,2^6,7-trimethyl-3-oxo-5^2,5^3-dihydro-1^1H,5^1H-li-oxa-4-aza-5(2,1)-benzo[d]imidazola-2(2,4)-pyridina-(4,5)-pyrazolacycloundecaphane-5^6-yl)methyl)piperazine-1-carbonyl)pyrrolidin-1-yl)phenyl)piperidine-2,6-dione] | 1.32 | 72.07 | 0.89 | 78.8
5 | Cc1cc2cc(n1)-c1cnn(C)c1OCCC[C@@H](C)CN1/C(=N/C2=O)Nc2ccc(N(C)C3CCN(C(=O)[C@@H]4CCN(c5cc(F)c([C@H]6CCC(=O)NC6=O)c(F)c5)C4)CC3)cc21 [Example 172, (R)-3-(2,6-difluoro-4-((R)-3-(4-(methyl((R,E)-1^1,2^6,7-trimethyl-3-oxo-5^2,5^3-dihydro-1^1H,5^1H-11-oxa-4-aza-5(2,1)-benzo[d]imidazola-2(2,4)-pyridina-1(4,5)-pyrazolacycloundecaphane-5^6-yl)amino)piperidine-1-carbonyl)pyrrolidin-1-yl)phenyl)piperidine-2,6-dione] | 0.663 | 75.08 | 0.954 | 90.6
6 | COCc1cc2c(cc1N1CCN(C3CCN(c4cc(F)c([C@H]5CCC(=O)NC5=O)c(F)c4)CC3)CC1)N1C[C@H](C)CCCOc3c(cnn3C)-c3cc(cc(C)n3)C(=O)/N=C/1N2 [Example 390, (R)-3-(2,6-difluoro-4-(4-(4-((R,E)-5^5-(methoxymethyl)-1^1,2^6,7-trimethyl-3-oxo-5^2,5^3-dihydro-1^1H,5^1H-11-oxa-4-aza-5(2,1)-benzo[d]imidazola-2(2,4)-pyridina-1(4,5)-pyrazolacycloundecaphane-5^6-yl)piperazin-1-yl)piperidin-1-yl)phenyl)piperidine-2,6-dione] | 1.69 | 73.87 | 2.49 | 87.7
7 | Cc1cc2cc(n1)-c1cnn(C)c1OCCC[C@@H](C)CN1/C(=N/C2=O)Nc2ccc(CN3CCC4(CC3)CN(C(=O)[C@@H]3CCN(c5cc(F)c([C@H]6CCC(=O)NC6=O)c(F)c5)C3)C4)cc21 [Example 20, (R)-3-(2,6-difluoro-4-((R)-3-(7-(((R,E)-1^1,2^6,7-trimethyl-3-oxo-5^2,5^3-dihydro-1^1H,5^1H-li-oxa-4-aza-5(2,1)-benzo[d]imidazola-2(2,4)-pyridina-1(4,5)-pyrazolacycloundecaphane-5^6-yl)methyl)-2,7-diazaspiro[3.5]nonane-2-carbonyl)pyrrolidin-1-yl)phenyl)piperidine-2,6-dione] | 0.7 | 79.0 | 0.9 | 89
8 | Cc1cc2cc(n1)-c1cnn(C)c1OCCC[C@@H](C)CN1/C(=N/C2=O)Nc2ccc(OC3CCN(C(=O)C4CN(c5cc(F)c([C@H]6CCC(=O)NC6=O)c(F)c5)C4)CC3)cc21 [Example 156, (R)-3-(2,6-difluoro-4-(3-(4-(((R,E)-1^1,2^6,7-trimethyl-3-oxo-5^2,5^3-dihydro-1^1H,5^1H-11-oxa-4-aza-5(2,1)-benzo[d]imidazola-2(2,4)-pyridina-1(4,5)-pyrazolacycloundecaphane-5^6-yl)oxy)piperidine-1-carbonyl)azetidin-1-yl)phenyl)piperidine-2,6-dione] | 1.2 | 72.74 | 0.634 | 86.9
9 | Cc1cc2cc(n1)-c1cnn(C)c1OCCC[C@@H](C)CN1/C(=N/C2=O)Nc2ccc(C(=O)N3CCC(NCCc4cc(F)c([C@H]5CCC(=O)NC5=O)c(F)c4)CC3)cc21 [Example 300, (R)-3-(2,6-difluoro-4-(2-((1-((R,E)-1^1,2^6,7-trimethyl-3-oxo-5^2,5′-dihydro-1^1H,5^1H-11-oxa-4-aza-5(2,1)-benzo[d]imidazola-2(2,4)-pyridina-1(4,5)-pyrazolacycloundecaphane-5^6-carbonyl)piperidin-4-yl)amino)ethyl)phenyl)piperidine-2,6-dione] | 1.48 | 73.74 | 0.653 | 88.2
10 | Cc1cc2cc(n1)-c1cnn(C)c1OCCC[C@@H](C)CN1/C(=N/C2=O)Nc2ccc(C(=O)N(C)[C@@H]3CCN(CCc4cc(F)c([C@H]5CCC(=O)NC5=O)c(F)c4)C[C@H]3O)cc21 [Example 243, (R,E)-N-((3R,4R)-1-(4-((R)-2,6-dioxopiperidin-3-yl)-3,5-difluorophenethyl)-3-hydroxypiperidin-4-yl)-N,1^1,2^6,7-tetramethyl-3-oxo-5^2,5^3-dihydro-1^1H,5^1H-11-oxa-4-aza-5(2,1)-benzo[d]imidazola-2(2,4) -pyridina-1(4,5)-pyrazolacycloundecaphane-5^6-carboxamide] | 2.9 | 86.39 | 0.677 | 92.1
11 | Cc1cc2cc(n1)-c1cnn(C)c1OCCC[C@@H](C)CN1/C(=N/C2=O)Nc2ccc(CN(C)[C@H]3CCCN(C(=O)[C@@H]4CCN(c5cc(F)c([C@H]6CCC(=O)NC6=O)c(F)c5)C4)C3)cc21 [Example 319, (R)-3-(2,6-difluoro-4-((R)-3-((S)-3-(methyl(((R,E)-1^1,2^6,7-trimethyl-3-oxo-5^2,5^3-dihydro-1^1H,5′ H-11-oxa-4-aza-5(2,1)-benzo[d]imidazola-2(2,4)-pyridina-1(4,5)-pyrazolacycloundecaphane-5^6-yl)methyl)amino)piperidine-1-carbonyl)pyrrolidin-1-yl)phenyl)piperidine-2,6-dione] | 0.643 | 74.25 | 1.26 | 83.4
12 | Cc1cc2cc(n1)-c1cnn(C)c1OCCC[C@@H](C)CN1/C(=N/C2=O)Nc2ccc(C(=O)N[C@H](C)C3CCN(CCc4cc(F)c([C@H]5CCC(=O)NC5=O)c(F)c4)CC3)cc21 [Example 271, (R,E)-N—((R)-1-(1-(4-((R)-2,6-dioxopiperidin-3-yl)-3,5-difluorophenethyl)piperidin-4-yl)ethyl)-1^1,2^6,7-trimethyl-3-oxo-5^2,5^3-dihydro-1^1H,5^1H-11-oxa-4-aza-5(2,1)-benzo[d]imidazola-2(2,4)-pyridina-1(4,5)-pyrazolacycloundecaphane-5^6-carboxamide] | 1.15 | 70.36 | 0.557 | 81.2
13 | Cc1cc2cc(n1)-c1cnn(C)c1OCCC[C@@H](C)CN1/C(=N/C2=O)Nc2ccc(CN3C[C@@H]4C[C@H]3CN4C(=O)[C@H]3CN(c4cc(F)c([C@H]5CCC(=O)NC5=O)c(F)c4)CC3(C)C)cc21 [Example 185, (R)-3-(4-((R)-3,3-dimethyl-4-((1S,4S)-5-(((R,E)-1^1,2^6,7-trimethyl-3-oxo-5^2,5^3-dihydro-1^1H,5^1H-11-oxa-4-aza-5(2,1)-benzo[d]imidazola-2(2,4)-pyridina-1(4,5)-pyrazolacycloundecaphane-5^6-yl)methyl)-2,5-diazabicyclo[2.2.1]heptane-2-carbonyl)pyrrolidin-1-yl)-2,6-difluorophenyl)piperidine-2,6-dione] | 0.752 | 60.18 | 1.04 | 87.1
